Assay: Hydrolytic stability in aqueous medium
Format: physicochemical
Settings: 50/50 w/w medium of 1,2-dimethoxyethane (DME) and sterilized water
Procedure: Aqueous solutions of the products from examples 3 and 5 above were prepared as follows. A 0.715% solution of propyl 4-trimethylsiloxybenzoate was prepared in a 50/50 w/w medium of 1,2-dimethoxyethane (DME)and sterilized water. […] Accordingly this DME/water solution (I) will contain 0.500% propyl 4-hydroxybenzoate and 0.180% trimethylsilanol and/or it's condensate hexamethyldisiloxane. In a similar manner a 0.685 % solution of butyl 4-trimethylsiloxybenzoate was prepared in a 50/50 w/w medium of 1,2-dimethoxyethane (DME)and sterilized water. […] Accordingly this DME/water solution (II) will contain 0.500% butyl 4-hydroxybenzoate and 0.170% trimethylsilanol and/or it's condensate hexamethyldisiloxane. The above two aqueous solutions were employed in Zone Inhibition Testing against three bacteria: Pseudomonas aeruginosa, Escherichia coli and Staphylococcus aureus.

Compound | hydrolytic stability
CCCOC(=O)c1ccc(O[Si](C)(C)C)cc1 [Example 3, propyl 4-trimethylsiloxybenzoate] | hydrolytically unstable
CCCCOC(=O)c1ccc(O[Si](C)(C)C)cc1 [Example 4, butyl 4-trimethylsiloxybenzoate] | hydrolytically unstable
